Measured values published in patent US8580752B2, “Aromatic amides as potentiators of bioefficacy of anti-infective drugs” (priority 2005, dated 2013).
Converted amounts (≈) assume the structure as drawn. Like-named read-outs stand apart in the source and are kept apart here.

Key:
[1] = tested on: M. tuberculosis 611; assay: MIC by checkerboard method; type: cell-based, Mycobacterium tuberculosis
Procedure: (§1) This checkerboard technique can be performed with liquid or semisolid (agar) media.
(§2) In this method the agar (Mueller Hinton agar, Middlebrook 7H10 agar) was autoclaved and allowed to cool to 55° C. to 50° C. The combination of the standard drug and the potentiator was added to the agar. Serial two fold dilutions of each of standard drug and the potentiator were prepared in appropriate solvents. In order to maintain the desired concentrations of both agar and drugs, and to rule out the effect of solvent, the volume of solvent (containing standard drug or potentiator) added to agar was kept small (i.e ≦5% of the total volume). After the agar plates have been poured and allowed to dry, the bacteria to be tested were applied to the surface of agar with a replicating device designed to deliver a standard inoculum (approx 10^4 cfu|spot). The plates were incubated at 37° C. for 24 hrs (3 weeks in case of Mycobacterium tuberculosis)
(§3) The above-mentioned checkerboard was also performed with liquid media in a microtiter plate format. This method was used to study the combination of antibacterial/antifungal/antiviral drugs with potentiator.

[2] = tested on: M. tuberculosis 615; assay: MIC by checkerboard method; type: cell-based, Mycobacterium tuberculosis
Procedure: as §1, §2, §3

[3] = tested on: M. tuberculosis H37Rv; assay: MIC by checkerboard method; type: cell-based, Mycobacterium tuberculosis; conditions: for MIC: Mycobacterium tuberculosis, Rifampicin alone
[4] = tested on: M. avium ATCC 49601; assay: MIC by checkerboard method; type: cell-based
[5] = tested on: M. intracellure ATCC 13950; assay: MIC by checkerboard method; type: cell-based
[6] = tested on: MRSA 450; assay: MIC by checkerboard method; type: cell-based; conditions: Staphylococcus aureus, S aureus MRSA 450
[7] = tested on: S epidermidis ATCC 12228; assay: MIC by checkerboard method; type: cell-based
[8] = tested on: S aureus ATCC 29213; assay: MIC by checkerboard method; type: cell-based, Staphylococcus aureus; conditions: Staphylococcus aureus
[9] = tested on: MRSA 33; assay: MIC by checkerboard method; type: cell-based; conditions: Staphylococcus aureus, S aureus MRSA 33
[10] = tested on: MRSA; assay: MIC by checkerboard method, comparison with piperine; type: cell-based, Staphylococcus aureus; conditions: Staphylococcus aureus, Tables 5A/5B
[11] = tested on: B cereus RRL 101; assay: MIC by checkerboard method; type: cell-based
[12] = tested on: Staphylococcus aureus ATCC 29213; assay: Systemic infection model of mice; type: in vivo, Swiss albino mice; conditions: ATCC29213, iv, read-out: ED50 for ciprofloxacin
Procedure: The study was conducted to see the in vivo response of ciprofloxacin in combination with the above-mentioned potentiator. The Swiss albino mice were infected intravenously with Staphylococcus aureus ATCC 29213 (10^7 CFU/mouse). The infected mice were divided in groups and each group consisted of 6 mice. The treatment consisted of one dose i.e. 5 or 10 or 20 mg/kg immediately after the infection followed by the next dose after a gap of 6 hrs. The result was recorded as number of survivals each day.

[13] = tested on: M. tb; assay: MIC of anti infective drugs alone and with potentiators; type: cell-based, Mycobacterium tuberculosis; conditions: Mycobacterium tuberculosis, drug alone
[14] = tested on: Gm −ve bacteria; assay: microbe, parasite or virus in culture; type: cell-based, Gram negative; conditions: read-out: MIC Drug alone
[15] = tested on: MRSA; assay: Wound infection treatment in mice; type: in vivo; conditions: for Growth / Mean CFU: MRSA wound infection in mice
Procedure: The study was conducted to see the in vivo response of Mupirocin in combination with the above-mentioned potentiator. Wound area of 1.5 cm×1.5 cm was created on the skin of mice by abrasion with sand paper. An inoculum of 10^8 CFU/ml of MRSA was applied on to this wound area. The wound was treated for five days (two applications a day) with mupirocin cream and the other group with a formulation of mupirocin at ¼^th concentration and compound of formula 1a. […] (Table-6).

[16] = tested on: MRSA 15187; assay: MIC by checkerboard method; type: cell-based; conditions: Staphylococcus aureus; Mupirocin alone; S aureus MRSA 15187
[17] = tested on: mice and guinea pig models infected with microorganisms; assay: In vivo infection models, combinations with anti-infective agents
Excerpt: These combinations were also efficacious when tested in in vivo using mice and guinea pig models infected with microorganisms (table-7).

[18] = tested on: Staphylococcus aureus, MRSA and Staphylococcus hemolyticus; assay: Decrease in MIC of ciprofloxacin in combination; type: cell-based; conditions: bacterial species (Table-2)
[19] = Acute toxicity study; type: in vivo; conditions: mice
Excerpt: Parameters monitored were: Food/water consumption, body weight, organ weight, haematological and clinical chemistry profile.

[20] = tested on: S. aureus ATCC 29213 (wild strain); assay: Ethidium bromide accumulation and efflux; conditions: compound 25 μg/ml, ethidium bromide 2 μg/ml
Procedure: Briefly, for measurement of the level of accumulation, both the bacterial strains were grown overnight on Trypticase Soya Agar. Bacterial suspensions were prepared at an optical density at 550 nm of 0.2 in uptake buffer (NaCl, 110 mM; KCl, 7 mM; NH4Cl, 50 mM; Na2HPO4, 0.4 mM; Tris base, 52 mM; glucose, 0.2% adjusted to pH 7.5 with HCl) and were then exposed to ethidium bromide at a concentration of 2 μg/ml. The increase in fluorescence as ethidium bromide entered the cells was recorded fluorometrically with a Perkin-Elmer model LS50 spectrofluorimeter (excitation λ, 530 nm; emission λ, 600 nm) at 30° C.
For determining ethidium bromide loss, bacterial suspensions were prepared as described above and were exposed to ethidium bromide (2 μg/ml) in the presence of compound of formula 1a (25 μg/ml) for 30 min at 37° C. The cells were then pelleted by centrifugation and were resuspended in fresh uptake buffer. The loss of ethidium bromide from the cells was measured as a decrease in fluorescence (FIG. IB)

[21] = tested on: S. aureus 29213, MRSA and M. tuberculosis H37Rv; assay: Comparison of potentiating activity with piperine; type: cell-based; conditions: Ciprofloxacin, Amikacin, Rifampicin and Mupirocin (Table-5 A & B)
Procedure: Minimum Inhibitory Concentration (MIC) of antibacterial agents (Ciprofloxacin, Amikacin, Rifampicin and Mupirocin) was determined alone and in combination with compound of formula (1a). MIC of the abovementioned antibacterial agents was also determined in combination with piperine.

[22] = with compound of formula 1a 0.09 μg/ml
[23] = with compound of formula 1a 0.78 μg/ml
[24] = with compound of formula 1a 6.25 μg/ml
[25] = with compound of formula 1a 50.0 μg/ml
[26] = Amikacin alone, read-out: MIC of Amikacin
[27] = Ciprofloxacin alone, read-out: MIC Ciprofloxacin
[28] = 2% Mupirocin, five days, two applications a day
[29] = Mupirocin alone, read-out: MIC of Mupirocin
[30] = Mycobacterium tuberculosis, Rifampicin alone
[31] = 0.25% Mupirocin + 0.25% compound of formula 1
[32] = 0.5% Mupirocin + 0.25% compound of formula 1

## CCC(/C=C/C(=O)N1CCCC1)=C\c1ccc2c(c1)OCO2 [5-(3,4-methylenedioxyphenyl)-4-ethyl-2E,4E-pentadienoic acid pyrrolidide]
[1]; [22]
  MIC of Rifampicin: 0.03 µg/mL
[1]; [23]
  MIC of Rifampicin: 0.03 µg/mL
[1]; [24]
  MIC of Rifampicin: 0.03 µg/mL
[1]; [25]
  MIC of Rifampicin: 0.03 µg/mL
[2]; [22]
  MIC of Rifampicin: 0.03 µg/mL
[2]; [23]
  MIC of Rifampicin: 0.03 µg/mL
[2]; [24]
  MIC of Rifampicin: 0.03 µg/mL
[2]; [25]
  MIC of Rifampicin: 0.03 µg/mL
[3]; with compound of formula 1a 0.09 μg/ml, M. tuberculosis H37Rv
  MIC of Rifampicin: 0.03 µg/mL
[3]; with compound of formula 1a 0.78 μg/ml, M. tuberculosis H37Rv
  MIC of Rifampicin: 0.03 µg/mL
[3]; with compound of formula 1a 6.25 μg/ml, M. tuberculosis H37Rv
  MIC of Rifampicin: 0.03 µg/mL
[3]; with compound of formula 1a 50.0 μg/ml, M. tuberculosis H37Rv
  MIC of Rifampicin: 0.03 µg/mL
[4]; [22]
  MIC of Rifampicin: 2.0 µg/mL
[4]; [23]
  MIC of Rifampicin: 2.0 µg/mL
[4]; [24]
  MIC of Rifampicin: 1.0 µg/mL
[4]; [25]
  MIC of Rifampicin: 1.0 µg/mL
[5]; [22]
  MIC of Rifampicin: 2.0 µg/mL
[5]; [23]
  MIC of Rifampicin: 1.0 µg/mL
[5]; [24]
  MIC of Rifampicin: 1.0 µg/mL
[5]; [25]
  MIC of Rifampicin: 1.0 µg/mL

## NCC[C@H](O)C(=O)N[C@@H]1C[C@H](N)[C@@H](O[C@H]2O[C@H](CN)[C@@H](O)[C@H](O)[C@H]2O)[C@H](O)[C@H]1O[C@H]1O[C@H](CO)[C@@H](O)[C@H](N)[C@H]1O [Amikacin, reference compound]
[6]; [26]
  MIC: 16 µg/mL
[7]; [26]
  MIC: 1 µg/mL
[8]; ATCC29213, Amikacin alone, read-out: MIC of Amikacin
  MIC: 2 µg/mL
[8]; ATCC29213, Tables 5A/5B, Amikacin alone, read-out: MIC Amikacin
  MIC: 2 µg/mL
[9]; [26]
  MIC: 8 µg/mL
[10]; Amikacin alone, read-out: MIC Amikacin
  MIC: 4 µg/mL
[11]; [26]
  MIC: 1 µg/mL

## O=C(O)c1cn(C2CC2)c2cc(N3CCNCC3)c(F)cc2c1=O [Ciprofloxacin, reference compound]
[12]
  ED50: 9.2 mg/kg
[6]; [27]
  MIC: 32 µg/mL
[13]
  MIC: 0.5 to 1 µg/mL
[7]; [27]
  MIC: 0.12 µg/mL
[8]; ATCC29213, Ciprofloxacin alone, read-out: MIC Ciprofloxacin
  MIC: 0.25 µg/mL
[8]; ATCC29213, Tables 5A/5B, Ciprofloxacin alone, read-out: MIC Ciprofloxacin
  MIC: 0.25 µg/mL
[9]; [27]
  MIC: 32 µg/mL
[10]; [27]
  MIC: 32 µg/mL
[11]; [27]
  MIC: 0.12 µg/mL
[14]
  MIC: 0.03 to 0.5 µg/mL (≈ 0.0905 to 1.51 µM)

## C/C(=C\C(=O)OCCCCCCCCC(=O)O)C[C@@H]1OC[C@H](C[C@@H]2O[C@H]2[C@@H](C)[C@H](C)O)[C@@H](O)[C@H]1O [Mupirocin, reference compound]
[15]; [28]
  Growth: 3/5
  Mean CFU: 1.08 × 10^4 CFU
[6]; [29]
  MIC: 0.25 µg/mL
[16]
  MIC: 0.25 µg/mL
[8]; ATCC29213, Mupirocin alone, read-out: MIC of Mupirocin
  MIC: 0.12 µg/mL
[8]; ATCC29213, Tables 5A/5B, Mupirocin alone, read-out: MIC Mupirocin
  MIC: 0.12 µg/mL
[9]; [29]
  MIC: 0.12 µg/mL
[10]; Mupirocin alone, read-out: MIC Mupirocin
  MIC: 0.12 µg/mL

## CO[C@H]1/C=C/O[C@@]2(C)Oc3c(C)c(O)c4c(O)c(c(/C=N/N5CCN(C)CC5)c(O)c4c3C2=O)NC(=O)/C(C)=C\C=C\[C@H](C)[C@H](O)[C@@H](C)[C@@H](O)[C@@H](C)[C@H](OC(C)=O)[C@@H]1C [Rifampicin, reference compound]
[1]; [30]
  MIC: 0.06 µg/mL
[2]; [30]
  MIC: 0.06 µg/mL
[3]; M. tuberculosis H37Rv, read-out: MIC of Rifampicin
  MIC: 0.12 µg/mL
[3]; Tables 5A/5B, M tuberculosis H37Rv, read-out: MIC Rifampicin
  MIC: 0.12 µg/mL
[4]; Mycobacterium avium, ATCC49601, Rifampicin alone
  MIC: 2 µg/mL
[5]; Rifampicin alone
  MIC: 2 µg/mL

## CCC(/C=C/C(=O)N1CCCCC1)=C\c1ccc2c(c1)OCO2 [compound of formula 1a, 4-ethyl-5-(3,4-methylenedioxyphenyl)-2E,4E-pentadienoic acid piperidine amide]
[17]
  efficacy of combinations with anti-infective agents in vivo: efficacious
[18]
  reductions in MIC of ciprofloxacin in combination with the potentiator: Two to more than eight fold
[15]; [31]
  Growth: 4/5
  Mean CFU: 2.5 × 10^4 CFU
[15]; [32]
  Growth: 1/5
  Mean CFU: 4.0 × 10^3 CFU
[15]; 0.5% Mupirocin + 0.5% compound of formula 1
  Growth: 0/5
[15]; combination of mupirocin with compound of formula-1a vs mupirocin cream, MRSA-infected skin wound of mice, five days
  wound healing: better wound healing
[19]
  LD50 (oral): > 3.0 gm/kg
[20]; S. aureus wild type (FIG. IA)
  accumulation of ethidium bromide: Increased Accumulation
[20]; S. aureus wild type (FIG. IB)
  efflux of ethidium bromide: Decreased Efflux
[21]
  potency relative to piperine in reducing the MICs of the antibacterial agents: four times more potent than piperine
